Literature values, collected in patent US20210369751A1, “BIOLOGICALLY ACTIVE COMPOSITIONS AND METHODS OF USING” (Mediwel Labs, LLC, priority 2020, published 2021).
“Also recorded” adds a separate entry of the source.

What was measured:
CD38 = molecular target: T1, CD38 (Homo sapiens, UniProt P28907); settings: purified pharmaceutical grade flavonoids; competitive antagonists
T1 sequence (P28907 1-300): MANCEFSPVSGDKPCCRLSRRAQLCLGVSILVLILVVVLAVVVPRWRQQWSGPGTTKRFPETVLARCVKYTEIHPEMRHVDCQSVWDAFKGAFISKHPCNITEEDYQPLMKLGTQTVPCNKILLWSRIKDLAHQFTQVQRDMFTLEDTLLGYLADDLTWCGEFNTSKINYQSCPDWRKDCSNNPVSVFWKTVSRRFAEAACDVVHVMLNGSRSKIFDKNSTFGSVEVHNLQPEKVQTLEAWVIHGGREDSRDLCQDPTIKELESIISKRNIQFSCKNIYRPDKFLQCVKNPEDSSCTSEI

[1] = propranolol co-administered with 3 mg piperine
[2] = 20 mg piperine daily for seven days before 300 mg phenytoin
[3] = 20 mg piperine daily for seven days before 150 mg theophylline

SMILES	inhibition of CD38 and its catalytic activity (CD38)	elimination rate of propranolol with piperine [1]	maximum blood concentration / blood levels of propranolol with piperine [1]	elimination of phenytoin with piperine pretreatment [2]	maximum concentration of phenytoin with piperine pretreatment [2]	time to maximum concentration of phenytoin with piperine pretreatment [2]	elimination rate of theophylline with piperine pretreatment [3]	maximum concentration of theophylline, pretreated with piperine versus drug alone ([3]; six healthy volunteers)
O=c1c(O)c(-c2ccc(O)c(O)c2)oc2cc(O)cc(O)c12 [quercetin]	potent inhibition							
O=C(/C=C/C=C/c1ccc2c(c1)OCO2)N1CCCCC1 [piperine]		did not affect the elimination rate; also recorded: without slowing down the drug elimination rate	increased two fold; also recorded: doubling its blood levels	significantly slower elimination	significantly higher concentrations	shorter time	significantly slowed down	1.5 times
O=c1cc(-c2ccc(O)cc2)oc2cc(O)cc(O)c12 [apigenin]	potent inhibition							
